This note sets out measurements from ChEMBL document CHEMBL6092193, “Identification of furo[2,3-d]pyrimidin-4-ylsulfanyl-1,3,4-thiadiazole derivatives as novel FLT3-ITD inhibitors” (Eur J Med Chem, 2024).

The structures appear in SMILES notation.

The target of experiment [1] is Receptor-type tyrosine-protein kinase FLT3 (Homo sapiens, UniProt P36888, ITD). The experiment is described as follows: biochemical. The experiment is classed as cell-based, Sf9.
For experiment [2], the system named is MV4-11. The experiment in a line: Antiproliferative activity against human MV4-11 cells harboring homozygous FLT3-ITD mutant assessed as inhibition of cell growth incubated for 72 hrs by resazurin dye based fluorescence analysis. In kind it is functional.
Experiment [3] relates to K562. The experiment is described as follows: cells. The note with it: Homo sapiens, K562, 72 h.
Description: Antiproliferative activity against FLT3-independent human K562 cells assessed as inhibition of cell growth incubated for 72 hrs by resazurin dye based fluorescence analysis
The test system of experiment [4] is MOLM-13. The experiment in a line: cells. The note with it: Homo sapiens, MOLM-13, 72 h.

Receptor-type tyrosine-protein kinase FLT3, sequence (P36888 whole entry, looked up, stated change not applied): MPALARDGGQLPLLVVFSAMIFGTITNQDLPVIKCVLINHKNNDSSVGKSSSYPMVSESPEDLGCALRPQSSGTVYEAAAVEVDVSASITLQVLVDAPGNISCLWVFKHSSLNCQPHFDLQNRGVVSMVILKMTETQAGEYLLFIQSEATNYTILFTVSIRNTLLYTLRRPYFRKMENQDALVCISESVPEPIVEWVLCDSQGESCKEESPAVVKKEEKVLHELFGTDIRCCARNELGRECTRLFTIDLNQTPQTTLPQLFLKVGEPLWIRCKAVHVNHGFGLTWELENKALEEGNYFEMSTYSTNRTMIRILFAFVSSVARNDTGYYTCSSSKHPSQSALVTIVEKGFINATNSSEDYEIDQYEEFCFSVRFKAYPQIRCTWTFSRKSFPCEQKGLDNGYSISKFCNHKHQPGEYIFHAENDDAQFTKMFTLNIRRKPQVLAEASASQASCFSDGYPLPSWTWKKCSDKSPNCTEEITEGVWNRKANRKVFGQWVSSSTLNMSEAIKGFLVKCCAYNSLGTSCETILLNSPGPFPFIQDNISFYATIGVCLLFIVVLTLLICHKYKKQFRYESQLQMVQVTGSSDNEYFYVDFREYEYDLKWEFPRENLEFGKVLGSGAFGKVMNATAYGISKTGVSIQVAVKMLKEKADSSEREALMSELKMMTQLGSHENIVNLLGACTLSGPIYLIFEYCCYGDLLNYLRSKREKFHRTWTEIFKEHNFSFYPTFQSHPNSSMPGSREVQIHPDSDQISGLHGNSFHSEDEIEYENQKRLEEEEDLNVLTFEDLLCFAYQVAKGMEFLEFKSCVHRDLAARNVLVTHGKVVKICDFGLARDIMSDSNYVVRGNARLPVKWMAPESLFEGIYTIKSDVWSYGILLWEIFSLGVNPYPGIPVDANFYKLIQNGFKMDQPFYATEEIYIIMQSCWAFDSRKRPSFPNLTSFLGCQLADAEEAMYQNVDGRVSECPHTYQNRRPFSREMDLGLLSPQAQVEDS

A word on the IC50: it is the point on the concentration scale where inhibition reaches its midpoint. A word on the GI50: it is the concentration that inhibits growth by half. Take `O=C(Nc1ccc(Cl)c(C(F)(F)F)c1)Nc1nnc(Sc2ncnc3oc(-c4ccccc4)c(-c4ccccc4)c23)s1`: in experiment [1], the half-inhibitory concentration (IC50) was 1270 nM. Also, the results for the 50% growth inhibitory concentration (GI50) in experiment [2], in experiment [3] and in experiment [4] were 8300 nM, above 10000 nM and above 10000 nM, respectively.
`Cc1ccc(NC(=O)Nc2nnc(Sc3ncnc4oc(-c5ccccc5)cc34)s2)cc1Cl`: in experiment [1], the midpoint of inhibition, the IC50, lay at 3 nM. Moreover, the GI50 in experiment [2] came to 430 nM; in experiment [3] it was 9500 nM; in experiment [4] it was 375 nM.
As for `COc1ccc(-c2cc3c(Sc4nnc(NC(=O)Nc5ccc(Cl)c(C(F)(F)F)c5)s4)ncnc3o2)cc1`, in experiment [1], the IC50 turned out to be 55 nM. Also, the 50% growth inhibitory concentration (GI50) in experiment [2] was above 10000 nM; in experiment [3] it was above 10000 nM; in experiment [4], 5820 nM.
In turn, `O=C(Nc1ccc(Cl)cc1)Nc1nnc(Sc2ncnc3oc(-c4ccccc4)cc23)s1` had an IC50 in experiment [1] of 9 nM. Further, the values for the GI50 in experiment [2], in experiment [3] and in experiment [4] were 430 nM, above 10000 nM and 297 nM, respectively.
With `O=C(Nc1ccc(Cl)c(Cl)c1)Nc1nnc(Sc2ncnc3oc(-c4ccccc4)cc23)s1`, half-maximal inhibition in experiment [1] (IC50) required 4 nM. In addition, the GI50 in experiment [2] came out at 1030 nM; in experiment [3], 9830 nM; in experiment [4] it was 710 nM.
Taken in the same sequence, the figures for `COc1cccc(NC(=O)Nc2nnc(Sc3ncnc4oc(-c5ccccc5)cc34)s2)c1` were 17 nM, 120 nM, 9460 nM and 79 nM.
Taken in the same sequence, the figures for `COc1ccc(-c2cc3c(Sc4nnc(NC(=O)Nc5ccccc5)s4)ncnc3o2)cc1` were 16 nM, 96 nM, above 10000 nM and 117 nM.
`Cc1cccc(NC(=O)Nc2nnc(Sc3ncnc4oc(-c5ccccc5)c(-c5ccccc5)c34)s2)c1` registered an IC50 in experiment [1] of 10 nM. The concentration for 50% growth inhibition (GI50) in experiment [2] is 115 nM; in experiment [3] it was above 10000 nM; in experiment [4] it was 120 nM.
With `O=C(Nc1ccccc1)Nc1nnc(Sc2ncnc3oc(-c4ccccc4)cc23)s1`, the IC50 in experiment [1] was determined as 38 nM. Besides, the GI50 in experiment [2] was 165 nM; in experiment [3] it was above 10000 nM; in experiment [4], 87 nM.
In experiment [1], `COc1ccc(NC(=O)Nc2nnc(Sc3ncnc4oc(-c5ccc(OC)cc5)cc34)s2)cc1` came in with an IC50 of 23 nM. Further, the 50% growth inhibitory concentration (GI50) in experiment [2] was 250 nM; in experiment [3] it was above 10000 nM; in experiment [4], 180 nM.
Compound `O=C(Nc1cccc(Cl)c1)Nc1nnc(Sc2ncnc3oc(-c4ccccc4)cc23)s1` registered an IC50 in experiment [1] of 10 nM. In addition, the values for the GI50 in experiment [2], in experiment [3] and in experiment [4] were 345 nM, above 10000 nM and 240 nM, respectively.
The compound `COc1ccc(NC(=O)Nc2nnc(Sc3ncnc4oc(-c5ccccc5)c(-c5ccccc5)c34)s2)cc1` gave a half-inhibitory concentration (IC50) in experiment [1] of 5 nM. For the same compound, the 50% growth inhibitory concentration (GI50) was 61 nM in experiment [2], above 10000 nM in experiment [3] and 83 nM in experiment [4].
For the compound `COc1ccc(-c2cc3c(Sc4nnc(NC(=O)Nc5ccc(Cl)cc5)s4)ncnc3o2)cc1`, the IC50 in experiment [1] was 22 nM. In addition, the results for the GI50 in experiment [2], in experiment [3] and in experiment [4] were 1380 nM, above 10000 nM and 1140 nM, respectively.
With `O=C(Nc1ccc(Br)cc1)Nc1nnc(Sc2ncnc3oc(-c4ccccc4)c(-c4ccccc4)c23)s1`, in experiment [1], the IC50 was determined as 55 nM. Also, the 50% growth inhibitory concentration (GI50) in experiment [2] was 396 nM; in experiment [3], above 10000 nM; in experiment [4], 723 nM.
Compound `O=C(Nc1ccc(Cl)c(C(F)(F)F)c1)Nc1nnc(Sc2ncnc3oc(-c4ccccc4)cc23)s1` yielded a half-inhibitory concentration (IC50) in experiment [1] of 3 nM. Further, the GI50 in experiment [2] is 910 nM; in experiment [3] it was above 10000 nM; in experiment [4] it was 1220 nM.
For `O=C(Nc1cccc(F)c1)Nc1nnc(Sc2ncnc3oc(-c4ccccc4)cc23)s1`, in experiment [1], half-maximal inhibition (IC50) required 56 nM. The values for the GI50 in experiment [2], in experiment [3] and in experiment [4] were 337 nM, 7960 nM and 190 nM, respectively.
`Cc1cccc(NC(=O)Nc2nnc(Sc3ncnc4oc(-c5ccccc5)cc34)s2)c1` registered an IC50 in experiment [1] of 12 nM. Besides, the GI50 in experiment [2] was 133 nM; in experiment [3] it was above 10000 nM; in experiment [4], 105 nM.
For `O=C(Nc1ccc(Cl)cc1)Nc1nnc(Sc2ncnc3oc(-c4ccccc4)c(-c4ccccc4)c23)s1`, in experiment [1], the half-maximal inhibitory concentration (IC50) worked out at 16 nM. The figures for the GI50 in experiment [2], in experiment [3] and in experiment [4] were 342 nM, 9860 nM and 452 nM, respectively.
Taken in the same sequence, the figures for `Cc1ccc(NC(=O)Nc2nnc(Sc3ncnc4oc(-c5ccccc5)c(-c5ccccc5)c34)s2)cc1Cl` were above 5000 nM, above 10000 nM, above 10000 nM and above 10000 nM.
Consider `O=C(Nc1ccc(Br)cc1)Nc1nnc(Sc2ncnc3oc(-c4ccccc4)cc23)s1`, for which the IC50 in experiment [1] is 3 nM. Further, the 50% growth inhibitory concentration (GI50) in experiment [2] is 1190 nM; in experiment [3], above 10000 nM; in experiment [4] it was 570 nM.
Taken in the same sequence, the figures for `O=C(Nc1nnc(Sc2ncnc3oc(-c4ccccc4)c(-c4ccccc4)c23)s1)Nc1ccc(F)cc1F` were 6 nM, 169 nM, above 10000 nM and 164 nM.
As for `COc1cccc(NC(=O)Nc2nnc(Sc3ncnc4oc(-c5ccccc5)c(-c5ccccc5)c34)s2)c1`, in experiment [1], the midpoint of inhibition, the IC50, lay at 4 nM. In addition, the figures for the GI50 in experiment [2], in experiment [3] and in experiment [4] were 86 nM, 9950 nM and 185 nM, respectively.
For the compound `Cc1ccc(NC(=O)Nc2nnc(Sc3ncnc4oc(-c5ccccc5)c(-c5ccccc5)c34)s2)cc1`, in experiment [1], the midpoint of inhibition, the IC50, lay at 5 nM. In addition, the GI50 in experiment [2] was 134 nM; in experiment [3] it was above 10000 nM; in experiment [4], 194 nM.
Take `O=C(Nc1ccc(Cl)c(Cl)c1)Nc1nnc(Sc2ncnc3oc(-c4ccccc4)c(-c4ccccc4)c23)s1`: the IC50 in experiment [1] amounted to 455 nM. Further, the GI50 in experiment [2] was 6190 nM; in experiment [3], above 10000 nM; in experiment [4] it was 8660 nM.
For the compound `O=C(Nc1cccc(Cl)c1)Nc1nnc(Sc2ncnc3oc(-c4ccccc4)c(-c4ccccc4)c23)s1`, in experiment [1], the half-maximal inhibitory concentration (IC50) was 14 nM. For the same compound, the concentration for 50% growth inhibition (GI50) was 362 nM in experiment [2], above 10000 nM in experiment [3] and 404 nM in experiment [4].
Consider `O=C(Nc1ccccc1)Nc1nnc(Sc2ncnc3oc(-c4ccccc4)c(-c4ccccc4)c23)s1`, for which the IC50 in experiment [1] was 4 nM. Moreover, the GI50 was 74 nM in experiment [2], above 10000 nM in experiment [3] and 110 nM in experiment [4].
Compound `O=C(Nc1nnc(Sc2ncnc3oc(-c4ccccc4)c(-c4ccccc4)c23)s1)Nc1ccccc1Br` displayed an IC50 in experiment [1] of 4 nM. Further, the results for the GI50 in experiment [2], in experiment [3] and in experiment [4] were 290 nM, above 10000 nM and 427 nM, respectively.
Taken in the same sequence, the figures for `O=C(Nc1cccc(F)c1)Nc1nnc(Sc2ncnc3oc(-c4ccccc4)c(-c4ccccc4)c23)s1` were 4 nM, 145 nM, above 10000 nM and 650 nM.
For the compound `COc1ccc(-c2cc3c(Sc4nnc(NC(=O)Nc5cccc(Cl)c5)s4)ncnc3o2)cc1`, the midpoint of inhibition in experiment [1], the IC50, lay at 48 nM. In addition, the GI50 was 1560 nM in experiment [2], above 10000 nM in experiment [3] and 1060 nM in experiment [4].
